Test system: cortical slices
Experiment: [3H]GABA release from prefrontal cortical slices
Format: cell-based, mice
Details: 20 mM KCl
Description: FIG. 2A is a line graph of [^3H]GABA release fraction/total fraction versus time (mins). Cortical slices were preloaded with [^3H]GABA for 30 min in the presence of b-alanine (1 mM), an inhibitor of [^3H]GABA uptake by glial cells, aminooxyacetic acid (0.1 mM), an inhibitor of GABA degradation, and nipecotic acid (1 mM), an inhibitor of the GABA transporter in neurons. Basal and depolarization (20 mM KCl)-evoked release of [^3H]GABA were monitored sequentially. Controls (open circles) and NRG1 (closed circles). FIG. 2B is a line graph of percent [^3H]GABA release versus NRG1 concentration (nM). Basal (open circles) K+ evoked (closed circles). […] FIG. 2D is a line graph of cumulative counts versus mIPSC amplitude (pA). Controls (open circles) and NRG1 (closed circles). FIG. 2E is a line graph of cumulative counts versus mIPSC interevent interval (ms). Controls (open circles) and NRG1 (closed circles). FIG. 2F is a bar graph of mIPSC (percent) in control and NRG1 treated pyramidal neurons in prefrontal cortical slices (n=12). Amplitude (clear) and Frequencies (hatched). FIG. 2G is a bar graph of percent eIPSC amplitude in prefrontal cortical slices treated with NRG1 versus control or washout. n=12, *p<0.01. Representative eIPSCs of control, NRG1-treated, or NRG1-treated/washed slices are shown on top. FIG. 2H is a line graph of percent eIPSC amplitude versus NRG1 (nM). n=6, *p<0.05, **p<0.01. FIG. 2I is a bar graph of K^+ evoked [^3H]GABA release (percent) (left axis, clear rectangles) and eIPSC amplitude (percent) (right axis, hatched rectangles) in prefrontal cortical slices treated with NRG1, denature NRG1, or BDNF. n=8 for [^3H]GABA release; for eIPSCs, n=6 for control, NRG1, and denatured NRG1, and n=4 for BDNF. *p<0.05, #p<0.05; **p<0.05, ##<0.01.
NRG1 may regulate GABAergic neurotransmission. To test this hypothesis, the effects of NRG1 on GABA release in cortical slices were determined by both biochemical and electrophysiological approaches. Basal [^3H]GABA release was low, at a rate of 3.75±0.35% (n=8) of total radioactivity per 10 min (FIG. 2A). Treatment of slices with 20 mM KCl, a condition known to depolarize neurons, increased [^3H]GABA release by 2.5-3.5 folds within 10 min (FIG. 2A). NRG1 had no effect on basal [^3H]GABA release; by contrast, it increased depolarization-evoked GABA release in a dose-dependent manner (FIG. 2B). […] Furthermore, the NRG regulation remained unchanged in the presence of antagonists of metabotropic glutamate receptors, cholinergic receptors, serotonin receptors, adrenergic receptors and/or dopamine receptors. As a control, BDNF decreased depolarization-evoked GABA release and eIPSCs in cortical slices, in agreement with earlier studies (Canas, et al., Brain Res, 1016:72-78 (2004); Frerking, et al., J Neurophysiol, 80:3383-3386 (1998)).

COc1cc2ncnc(Nc3cccc(Cl)c3)c2cc1OC [AG1478]
depolarization-evoked [3H]GABA release (substance alone, no other exogenous agent, AG1478/AG879 5 mM [sic]): decreased | NRG1-enhanced evoked GABA release (substance given with exogenous NRG1): prevented

— patent US20130224223A1, “Compositions and Methods for Treating Neurological Disorders” (GEORGIA REGENTS UNIVERSITY, priority 2007, published 2013)
